Test results: patent US12077503B2, “Substituted cyclic amides and their use as herbicides” (FMC CORPORATION, priority 2015, dated 2024)

Legend:
Assay type in all cases: in vivo
Kochia (Kochia scoparia) [1] = experiment: Test A preemergence; conditions: Bassia scoparia, pre-emergence, 240 h, preemergence, read-out: Plant response rating, Kochia; for pest or weed control at 125 g/ha: 125 g ai/ha, visual rating after approx. 10 d, 0 to 100 scale where 0 is no effect and 100 is complete control; for pest or weed control at 500 g/ha: 500 g ai/ha, 0 to 100 scale, 0 = no effect, 100 = complete control
Summary of the method: (§1)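 Greenhouse, ~10 d after spray; visual injury vs untreated controls, 0 = no effect, 100 = complete control. Preemergence: directed soil spray over planted seeds. Postemergence: plants 2–10 cm, 1–2 leaf stage. Loam/sand blend. Compound in non-phytotoxic solvent with surfactant.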

[2] = system: barnyardgrass (Echinochloa crus-galli); experiment: Test A preemergence; conditions: Echinochloa crus-galli, pre-emergence, 240 h, preemergence, read-out: Plant response rating, Barnyardgrass; for pest or weed control at 125 g/ha: 125 g ai/ha, visual rating after approx. 10 d, 0 to 100 scale where 0 is no effect and 100 is complete control; for pest or weed control at 500 g/ha: 500 g ai/ha, 0 to 100 scale, 0 = no effect, 100 = complete control
Summary of the method: as §1

[3] = system: giant foxtail (Setaria faberii); experiment: Test A preemergence; conditions: Setaria faberi, pre-emergence, 240 h, preemergence, read-out: Plant response rating, Foxtail, Giant; for pest or weed control at 125 g/ha: 125 g ai/ha, visual rating after approx. 10 d, 0 to 100 scale where 0 is no effect and 100 is complete control; for pest or weed control at 500 g/ha: 500 g ai/ha, 0 to 100 scale, 0 = no effect, 100 = complete control
Summary of the method: as §1

[4] = system: ragweed (common ragweed, Ambrosia elatior); experiment: Test A preemergence; conditions: Ambrosia artemisiifolia, pre-emergence, 240 h, preemergence, read-out: Plant response rating, Ragweed; for pest or weed control at 125 g/ha: 125 g ai/ha, visual rating after approx. 10 d, 0 to 100 scale where 0 is no effect and 100 is complete control; for pest or weed control at 500 g/ha: 500 g ai/ha, 0 to 100 scale, 0 = no effect, 100 = complete control
Summary of the method: as §1

[5] = system: ryegrass, Italian (Italian ryegrass, Lolium multiflorum); experiment: Test A preemergence; conditions: Lolium multiflorum, pre-emergence, 240 h, preemergence, read-out: Plant response rating, Ryegrass, Italian; for pest or weed control at 125 g/ha: 125 g ai/ha, visual rating after approx. 10 d, 0 to 100 scale where 0 is no effect and 100 is complete control; for pest or weed control at 500 g/ha: 500 g ai/ha, 0 to 100 scale, 0 = no effect, 100 = complete control
Summary of the method: as §1

[6] = system: Galium (catchweed bedstraw, Galium aparine); experiment: Test A postemergence; conditions: Galium, post-emergence, 240 h, 125 g ai/ha, postemergence; visual injury after approximately 10 d; 0 to 100 scale (0 no effect, 100 complete control); read-out: Plant response rating, Galium
Summary of the method: as §1

Kochia (Kochia scoparia) [7] = experiment: Test A postemergence; conditions: Bassia scoparia, post-emergence, 240 h, 125 g ai/ha, postemergence; visual injury after approximately 10 d; 0 to 100 scale (0 no effect, 100 complete control); read-out: Plant response rating, Kochia
Summary of the method: as §1

[8] = system: barnyardgrass (Echinochloa crus-galli); experiment: Test A postemergence; conditions: Echinochloa crus-galli, post-emergence, 240 h, 125 g ai/ha, postemergence; visual injury after approximately 10 d; 0 to 100 scale (0 no effect, 100 complete control); read-out: Plant response rating, Barnyardgrass
Summary of the method: as §1

[9] = system: blackgrass (Alopecurus myosuroides); experiment: Test A postemergence; conditions: Alopecurus myosuroides, post-emergence, 240 h, 125 g ai/ha, postemergence; visual injury after approximately 10 d; 0 to 100 scale (0 no effect, 100 complete control); read-out: Plant response rating, Blackgrass
Summary of the method: as §1

corn (Zea mays) = experiment: Test A postemergence; conditions: Zea mays, post-emergence, 240 h, 125 g ai/ha, postemergence; visual injury after approximately 10 d; 0 to 100 scale (0 no effect, 100 complete control)
Summary of the method: as §1

[10] = system: giant foxtail (Setaria faberii); experiment: Test A postemergence; conditions: Setaria faberi, post-emergence, 240 h, 125 g ai/ha, postemergence; visual injury after approximately 10 d; 0 to 100 scale (0 no effect, 100 complete control); read-out: Plant response rating, Foxtail, Giant
Summary of the method: as §1

[11] = system: pigweed (Amaranthus retroflexus); experiment: Test A postemergence; conditions: Amaranthus retroflexus, post-emergence, 240 h, 125 g ai/ha, postemergence; visual injury after approximately 10 d; 0 to 100 scale (0 no effect, 100 complete control); read-out: Plant response rating, Pigweed
Summary of the method: as §1

[12] = system: ragweed (common ragweed, Ambrosia elatior); experiment: Test A postemergence; conditions: Ambrosia artemisiifolia, post-emergence, 240 h, 125 g ai/ha, postemergence; visual injury after approximately 10 d; 0 to 100 scale (0 no effect, 100 complete control); read-out: Plant response rating, Ragweed
Summary of the method: as §1

[13] = system: ryegrass, Italian (Italian ryegrass, Lolium multiflorum); experiment: Test A postemergence; conditions: Lolium multiflorum, post-emergence, 240 h, 125 g ai/ha, postemergence; visual injury after approximately 10 d; 0 to 100 scale (0 no effect, 100 complete control); read-out: Plant response rating, Ryegrass, Italian
Summary of the method: as §1

[14] = system: wheat (Triticum aestivum); experiment: Test A postemergence; conditions: Triticum aestivum, post-emergence, 240 h, 125 g ai/ha, postemergence; visual injury after approximately 10 d; 0 to 100 scale (0 no effect, 100 complete control); read-out: Plant response rating, Wheat
Summary of the method: as §1

| SMILES | pest or weed control at 125 g/ha (Kochia (Kochia scoparia) [1]) [%] | pest or weed control at 500 g/ha (Kochia (Kochia scoparia) [1]) [%] | pest or weed control at 125 g/ha [2] [%] | pest or weed control at 500 g/ha [2] [%] | pest or weed control at 125 g/ha [3] [%] | pest or weed control at 500 g/ha [3] [%] | pest or weed control at 125 g/ha [4] [%] | pest or weed control at 500 g/ha [4] [%] | pest or weed control at 125 g/ha [5] [%] | pest or weed control at 500 g/ha [5] [%] | pest or weed control at 125 g/ha [6] [%] | pest or weed control at 125 g/ha (Kochia (Kochia scoparia) [7]) [%] | pest or weed control at 125 g/ha [8] [%] | pest or weed control at 125 g/ha [9] [%] | Corn plant response rating (crop injury, 0 = no effect, 100 = complete kill) at 125 g/ha (corn (Zea mays)) [%] | pest or weed control at 125 g/ha [10] [%] | pest or weed control at 125 g/ha [11] [%] | pest or weed control at 125 g/ha [12] [%] | pest or weed control at 125 g/ha [13] [%] | plant injury at 125 g/ha [14] [%] |
| --- | --- | --- | --- | --- | --- | --- | --- | --- | --- | --- | --- | --- | --- | --- | --- | --- | --- | --- | --- | --- |
| CN1C[C@H](c2ccc(C(F)(F)F)cc2)[C@@H](C(=O)Nc2ccc(F)c(F)c2F)C1=O [Compound 745] | 90 | 90 | 90 | 90 | 90 | 90 | 80 | 80 | 70 | 90 | 60 | 70 | 90 | 40 | 90 | 90 | 70 | 40 | 50 | 60 |
| CS(=O)(=O)c1ccccc1NC(=O)[C@H]1C(=O)NC[C@@H]1c1cccc2c1OC(F)(F)O2 [Compound 753] | 20 | 20 | 70 | 100 | 70 | 90 | 0 | 0 | 0 | 20 | 0 | 0 | 50 | 0 | 0 | 0 | 0 | 0 | 0 | 0 |
| Cc1ccc([C@H]2CNC(=S)[C@@H]2C(=O)Nc2cccc(F)c2C)cc1C [Compound 764] | 0 | 0 | 100 | 100 | 70 | 80 | 0 | 0 | 0 | – | 0 | 0 | 80 | 0 | 0 | 0 | 0 | 0 | 30 | 0 |
| CSc1ccccc1NC(=O)[C@H]1C(=S)NC[C@@H]1c1ccc(C)c(C)c1 [Compound 766] | 0 | 0 | 70 | 90 | 0 | 40 | 0 | 0 | 0 | – | 0 | 0 | 10 | 0 | 0 | 0 | 0 | 0 | 0 | 0 |
| COc1cc([C@H]2CN(C)C(=O)[C@@H]2C(=O)Nc2ccccc2F)ccc1C(F)(F)F [Compound 768] | 60 | 70 | 90 | 90 | 90 | 90 | 0 | 0 | 0 | – | 30 | 0 | 70 | 0 | 30 | 80 | 0 | 0 | 30 | 0 |
